We go through 5 compounds from PubChem BioAssay AID1117328 (Cheminformatics & Chemogenomics Research Group (CCRG), …, 2015).

The inhibition is the relative decrease from the control value, in per cent.

In the test the target is Ribosomal protein S6 kinase beta-1 (Homo sapiens) (UniProt P23443). The test is described as follows: inhibition of human S6K1 enzyme activity – biochemical, LANCE Ultra TR-FRET (AID 1117328). The settings on record: LANCE Ultra TR-FRET kinase assay, p70S6K1; at 20 µM (top of the series). (In general: In TR-FRET formats the signal depends on donor and acceptor labels being close together.)

Activity calls are given as the source filed them. The rule behind the calls is not given here.

Ribosomal protein S6 kinase beta-1 (Homo sapiens), sequence (P23443 whole entry, looked up): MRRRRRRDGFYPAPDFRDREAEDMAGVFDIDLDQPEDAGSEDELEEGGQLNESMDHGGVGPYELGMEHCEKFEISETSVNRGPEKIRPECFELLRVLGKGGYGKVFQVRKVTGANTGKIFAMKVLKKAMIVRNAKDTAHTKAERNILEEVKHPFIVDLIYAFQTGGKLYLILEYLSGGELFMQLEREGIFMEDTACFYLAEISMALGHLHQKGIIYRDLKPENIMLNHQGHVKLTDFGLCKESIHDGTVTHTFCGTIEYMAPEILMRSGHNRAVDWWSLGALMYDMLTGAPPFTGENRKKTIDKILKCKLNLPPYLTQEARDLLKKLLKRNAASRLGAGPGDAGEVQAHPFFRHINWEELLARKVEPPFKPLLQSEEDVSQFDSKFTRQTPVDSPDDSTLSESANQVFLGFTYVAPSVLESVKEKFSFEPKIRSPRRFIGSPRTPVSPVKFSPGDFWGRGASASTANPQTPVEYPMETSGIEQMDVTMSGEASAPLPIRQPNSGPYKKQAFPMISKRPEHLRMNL

Regarding `CC(C)(C)C(=O)OCOP(=O)(COCCn1cnc2c(N)ncnc21)OCOC(=O)C(C)(C)C`, the inhibition was -0.94% (inactive).

For the compound `CSc1ccc2c(c1)C(N1CCN(C)CC1)Cc1ccccc1S2` (stereo not given), the inhibition is 6.51% (inactive).

As to `CN1CC[C@H](c2c(O)cc(O)c3c(=O)cc(-c4ccccc4Cl)oc23)[C@H](O)C1`, the inhibition was 48.6% (inactive).

Consider `Cc1ccccc1C(=O)Nc1ccc(C(=O)N2CCCC(N(C)C)c3ccccc32)cc1` (stereo not given), for which the inhibition was -7.07% (inactive).

In the case of `COc1cc2c(c(OC)c1OC)-c1ccc(OC)c(=O)cc1[C@@H](NC(C)=O)CC2`, the inhibition was -2.55% (inactive).
